Assay results taken from patent US6656941B2, “Aryl substituted tetrahydroindazoles” (Neurogen Corporation, priority 2000, dated 2003).

- melting point: 120 °C
SMILES: CCCNCCOc1ccc(NC(=O)c2n[nH]c3c2C(=O)CCC3)cn1 [Example 4, 4-Oxo-4,5,6,7-tetrahydro-1H-indazole-3-carboxylic acid [6-(2-propylamino-ethoxy)-pyridin-3-yl]-amide]
